Assay results reported in PubChem BioAssay (NCI).
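Cells were grown in 96-well plates and exposed to each compound for 48 hours at five concentrations; endpoints were interpolated linearly between bracketing concentrations, or set to the highest concentration if not reached. TGI: concentration producing complete growth inhibition.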

Assays:
Experiment in all cases: NCI tumour cell line growth inhibition, 48 h
SN12C renal = tested on: SN12C renal
MALME-3M melanoma = tested on: MALME-3M melanoma
OVCAR-5 ovarian = tested on: OVCAR-5 ovarian
MDA-MB-231 breast = tested on: MDA-MB-231 breast
SF-539 CNS = tested on: SF-539 CNS
UACC-257 melanoma = tested on: UACC-257 melanoma
BT-549 breast = tested on: BT-549 breast
NCI-H522 lung = tested on: NCI-H522 lung
COLO 205 colon = tested on: COLO 205 colon
OVCAR-3 ovarian = tested on: OVCAR-3 ovarian
OVCAR-8 ovarian = tested on: OVCAR-8 ovarian
HCT-15 colon = tested on: HCT-15 colon
NCI-H460 lung = tested on: NCI-H460 lung
M14 melanoma = tested on: M14 melanoma
SK-MEL-2 melanoma = tested on: SK-MEL-2 melanoma
T-47D breast = tested on: T-47D breast
NCI/ADR-RES ovarian = tested on: NCI/ADR-RES ovarian
SW-620 colon = tested on: SW-620 colon
K-562 leukemia = tested on: K-562 leukemia
RPMI-8226 leukemia = tested on: RPMI-8226 leukemia
MOLT-4 leukemia = tested on: MOLT-4 leukemia
CCRF-CEM leukemia = tested on: CCRF-CEM leukemia
HT29 colon = tested on: HT29 colon
DU-145 prostate = tested on: DU-145 prostate
KM12 colon = tested on: KM12 colon
PC-3 prostate = tested on: PC-3 prostate
SK-MEL-5 melanoma = tested on: SK-MEL-5 melanoma
SNB-19 CNS = tested on: SNB-19 CNS
MDA-MB-435 = tested on: MDA-MB-435
SNB-75 CNS = tested on: SNB-75 CNS
SF-295 CNS = tested on: SF-295 CNS
HCT-116 colon = tested on: HCT-116 colon
IGROV1 ovarian = tested on: IGROV1 ovarian
SR leukemia = tested on: SR leukemia
NCI-H23 lung = tested on: NCI-H23 lung
UO-31 renal = tested on: UO-31 renal
ACHN renal = tested on: ACHN renal
MCF7 breast = tested on: MCF7 breast
MDA-N = tested on: MDA-N
SK-MEL-28 melanoma = tested on: SK-MEL-28 melanoma
A498 renal = tested on: A498 renal
786-0 renal = tested on: 786-0 renal
U251 CNS = tested on: U251 CNS
EKVX NSCLC = tested on: EKVX NSCLC
LOX IMVI melanoma = tested on: LOX IMVI melanoma
HS 578T breast = tested on: HS 578T breast
HOP-62 NSCLC = tested on: HOP-62 NSCLC
SK-OV-3 ovarian = tested on: SK-OV-3 ovarian
CAKI-1 renal = tested on: CAKI-1 renal
SF-268 CNS = tested on: SF-268 CNS
TK-10 renal = tested on: TK-10 renal
RXF 393 renal = tested on: RXF 393 renal
UACC-62 melanoma = tested on: UACC-62 melanoma
HOP-92 NSCLC = tested on: HOP-92 NSCLC
OVCAR-4 ovarian = tested on: OVCAR-4 ovarian
A549 NSCLC = tested on: A549 NSCLC

Measured: TGI

Cc1cc(=Nc2ccc3c(c2)c(N)cc(C)[n+]3C)nc(N)n1C
> 100 µM: SN12C renal | MALME-3M melanoma | OVCAR-5 ovarian | MDA-MB-231 breast | SF-539 CNS | UACC-257 melanoma | BT-549 breast | NCI-H522 lung | COLO 205 colon | OVCAR-3 ovarian | OVCAR-8 ovarian | HCT-15 colon | NCI-H460 lung | M14 melanoma | SK-MEL-2 melanoma | T-47D breast | NCI/ADR-RES ovarian | SW-620 colon | K-562 leukemia | RPMI-8226 leukemia | MOLT-4 leukemia | CCRF-CEM leukemia | HT29 colon | DU-145 prostate | KM12 colon | PC-3 prostate | SK-MEL-5 melanoma | SNB-19 CNS | MDA-MB-435 | SNB-75 CNS | SF-295 CNS | HCT-116 colon | IGROV1 ovarian | SR leukemia | NCI-H23 lung | UO-31 renal | ACHN renal | MCF7 breast | MDA-N | SK-MEL-28 melanoma | A498 renal | 786-0 renal | U251 CNS | EKVX NSCLC | LOX IMVI melanoma | HS 578T breast | HOP-62 NSCLC | SK-OV-3 ovarian | CAKI-1 renal | SF-268 CNS | TK-10 renal | RXF 393 renal | UACC-62 melanoma | HOP-92 NSCLC | OVCAR-4 ovarian | A549 NSCLC
